Two substances from article PMC4198483 (Cancer cell, 2014) can be followed below.

Substitutions are numbered along the chain they refer to.

Assay [1] deals with T1, TIPE3 (TNFAIP8L3) (Mus musculus, UniProt Q3TBL6).
T1 sequence (Q3TBL6 1-204): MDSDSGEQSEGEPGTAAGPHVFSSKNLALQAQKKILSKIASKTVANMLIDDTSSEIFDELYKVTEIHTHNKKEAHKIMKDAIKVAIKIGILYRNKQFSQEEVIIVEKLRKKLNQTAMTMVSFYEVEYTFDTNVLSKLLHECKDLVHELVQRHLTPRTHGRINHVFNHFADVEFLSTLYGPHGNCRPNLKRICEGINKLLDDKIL
Nature of the assay: vesicle sedimentation assay. It is filed as binding. The note with it: 20 µM protein; 1000 µM vesicles of 10% lipid + 90% PC.

Assay [2] deals with T2, TIPE3 (TNFAIP8L3) (Mus musculus, UniProt Q3TBL6, K33Q/K34Q/K38Q/K42Q).
T2 sequence (Q3TBL6 1-204 K33Q/K34Q/K38Q/K42Q): T1 sequence (Q3TBL6 1-204) with K33Q, K34Q, K38Q, K42Q
Nature of the assay: vesicle sedimentation assay. Type of assay: binding. The settings on record: 20 µM protein; 1000 µM vesicles of 10% lipid + 90% PC.

In the case of PtdIns(3,4,5)P3, the “% protein bound to vesicles” value at TIPE3 (TNFAIP8L3) [1] was over 60%.

In the case of PtdIns(4,5)P2, the “% protein bound to vesicles” value at TIPE3 (TNFAIP8L3) [1] is recorded as over 60%; at TIPE3 (TNFAIP8L3) [2], ~ 30%.
